Assay results from patent US20160159814A1, “GLYCINE TRANSPORTER INHIBITOR” (TAISHO PHARMACEUTICAL CO., LTD., priority 2013, published 2016).

Target: T1, human type 1 glycine transporter (GlyT1) (Homo sapiens, UniProt P48067)
T1 construct: T98G cells (glioma cells) expressing human type 1 glycine transporter (GlyT1) were used; endogenous in cells; host or cells: T98G cells (human glioma cells)
T1 sequence (P48067 1-706): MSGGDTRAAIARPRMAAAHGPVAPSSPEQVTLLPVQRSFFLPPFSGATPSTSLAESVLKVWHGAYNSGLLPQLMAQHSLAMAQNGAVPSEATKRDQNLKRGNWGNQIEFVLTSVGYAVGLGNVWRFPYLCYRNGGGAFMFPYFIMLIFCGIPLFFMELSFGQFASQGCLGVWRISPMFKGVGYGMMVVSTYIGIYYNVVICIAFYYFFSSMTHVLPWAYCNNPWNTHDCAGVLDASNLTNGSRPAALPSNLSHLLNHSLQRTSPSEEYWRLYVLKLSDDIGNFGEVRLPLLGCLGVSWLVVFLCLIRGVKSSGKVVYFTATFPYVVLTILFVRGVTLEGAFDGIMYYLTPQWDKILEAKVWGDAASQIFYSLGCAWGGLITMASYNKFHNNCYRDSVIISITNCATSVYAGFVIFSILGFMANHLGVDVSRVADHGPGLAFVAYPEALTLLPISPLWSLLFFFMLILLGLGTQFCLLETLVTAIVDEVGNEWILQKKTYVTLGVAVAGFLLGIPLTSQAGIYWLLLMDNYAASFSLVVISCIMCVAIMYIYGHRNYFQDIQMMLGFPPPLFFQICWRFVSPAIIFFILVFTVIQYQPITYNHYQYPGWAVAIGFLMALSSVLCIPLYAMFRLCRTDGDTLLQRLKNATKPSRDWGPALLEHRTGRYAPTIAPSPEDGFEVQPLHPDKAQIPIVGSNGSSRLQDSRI
Test: Glycine uptake inhibition experiment ([3H] glycine uptake in T98G cells expressing GlyT1)
Type: cell-based
Conditions: glycine uptake inhibition
Procedure, shortened: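 T98G glioma cells expressing human GlyT1 were pretreated 10 min with compound in HEPES buffer pH 7.4 (0.2% BSA), then incubated with compound plus 250 nM final [3H]glycine for 15 min at room temperature. Intracellular radioactivity was counted after NaOH lysis; 10 μM ALX5407 defined non-specific uptake. IC50 came from 10^−9–10^−5 M curves.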

| IC50 [nM] | SMILES |
| --- | --- |
| 38 | O=C1N(Cc2ccnc(Cl)c2)c2cccc([C@@H](O)C(F)(F)F)c2C1(F)F [Compound 32, 1-[(2-chloropyridin-4-yl)methyl]-3,3-difluoro-4-[(1R)-2,2,2-trifluoro-1-hydroxyethyl]-1,3-dihydro-2H-indol-2-one] |
| 43 | Cn1c(CN2C(=O)C(F)(F)c3c([C@@H](O)C(F)(F)F)cccc32)nc2ccccc2c1=O [Compound 37, 2-({3,3-difluoro-2-oxo-4-[(1R)-2,2,2-trifluoro-1-hydroxyethyl]-2,3-dihydro-1H-indol-1-yl}methyl)-3-methylquinazolin-4(3H)-one] |
| 5300 | C[C@@H](O)c1cccc2c1C(F)(F)C(=O)N2Cc1ccnc(C#N)c1 [Compound 38, 4-({3,3-difluoro-4-[(1R)-1-hydroxyethyl]-2-oxo-2,3-dihydro-1H-indol-1-yl}methyl)pyridine-2-carbonitrile] |
| 620 | C[C@@H](O)c1cccc2c1C(F)(F)C(=O)N2Cc1nc2ccccc2c(=O)n1C [Compound 39, 2-({3,3-difluoro-4-[(1R)-1-hydroxyethyl]-2-oxo-2,3-dihydro-1H-indol-1-yl}methyl)-3-methylquinazolin-4(3H)-one] |
| 38 | C[C@H](O)c1cccc2c1C(F)(F)C(=O)N2Cc1ccnc(C#N)c1 [Compound 40, 4-({3,3-difluoro-4-[(1S)-1-hydroxyethyl]-2-oxo-2,3-dihydro-1H-indol-1-yl}methyl)pyridine-2-carbonitrile] |
| 29 | C[C@H](O)c1cccc2c1C(F)(F)C(=O)N2Cc1nc2ccccc2c(=O)n1C [Compound 41, 2-({3,3-difluoro-4-[(1S)-1-hydroxyethyl]-2-oxo-2,3-dihydro-1H-indol-1-yl}methyl)-3-methylquinazolin-4(3H)-one] |
| 50 | C[C@H](O)c1cccc2c1C(F)(F)C(=O)N2Cc1ccnc(F)c1 [Compound 42, 3,3-difluoro-1-[(2-fluoropyridin-4-yl)methyl]-4-[(1S)-1-hydroxyethyl]-1,3-dihydro-2H-indol-2-one] |
| 4400 | C[C@@H](O)c1cccc2c1C(F)(F)C(=O)N2Cc1ccnc(F)c1 [Compound 43, 3,3-difluoro-1-[(2-fluoropyridin-4-yl)methyl]4-[(1R)-1-hydroxyethyl]-1,3-dihydro-2H-indol-2-one] |
| 68 | C[C@H](O)c1cccc2c1C(F)(F)C(=O)N2Cc1cccc(-n2nccn2)n1 [Compound 44, 3,3-difluoro-4-[(1S)-1-hydroxyethyl]-1-{[6-(2H-1,2,3-triazol-2-yl)pyridin-2-yl]methyl}-1,3-dihydro-2H-indol-2-one] |
| 110 | C[C@H](O)c1cccc2c1C(F)(F)C(=O)N2Cc1ccnc(-n2nccn2)c1 [Compound 45, 3,3-difluoro-4-[(1S)-1-hydroxyethyl]-1-{[2-(2H-1,2,3-triazol-2-yl)pyridin-4-yl]methyl}-1,3-dihydro-2H-indol-2-one] |
| 140 | C[C@H](O)c1cccc2c1C(F)(F)C(=O)N2Cc1ccc2nccnc2c1 [Compound 46, 3,3-difluoro-4-[(1S)-1-hydroxyethyl]-1-(quinoxalin-6-ylmethyl)-1,3-dihydro-2H-indol-2-one] |
| 40 | O=C1N(Cc2cncc(Cl)n2)c2cccc([C@@H](O)C(F)(F)F)c2C1(F)F [Compound 47, 1-[(6-chloropyrazin-2-yl)methyl]-3,3-difluoro-4-[(1R)-2,2,2-trifluoro-1-hydroxyethyl]-1,3-dihydro-2H-indol-2-one] |
| 85 | O=C1N(Cc2cncc(Cl)c2)c2ccc(F)c(C(O)C(F)(F)F)c2C1(F)F (centres unmarked) [Compound 48, 1-[(5-chloropyridin-3-yl)methyl]-3,3,5-trifluoro-4-(2,2,2-trifluoro-1-hydroxyethyl)-1,3-dihydro-2H-indol-2-one] |
| 260 | CC(c1cccc(Cl)n1)N1C(=O)C(F)(F)c2c([C@H](C)O)cccc21 (stereo partly drawn) [Compound 51, 1-[1-(6-chloropyridin-2-yl)ethyl]-3,3-difluoro-4-[(1S)-1-hydroxyethyl]-1,3-dihydro-2H-indol-2-one] |
